From the NIST ThermoML archive (doi:10.1021/acs.jced.6b00819)
± gives the expanded uncertainty stated by the source.

Test: wn = mass fraction of the nth substance listed
Conditions: 100 kPa, Liquid, Pycnometric method

mass density (313.15 K, w1 = 0.446): 1238 ± 2 kg/m3
mass density (353.15 K, w1 = 0.481): 1242 ± 2 kg/m3
SMILES: N.N.O=S(=O)(O)O [ammonium sulfate] + O
